In ChEMBL document CHEMBL1125978 (Bioorg Med Chem Lett, 1991):

Columns and labels:
[1] = target: Muscarinic acetylcholine receptor
Description: Compound was evaluated for its ability to displace muscarinic agonist [3H]quinuclidinyl benzilate in rat cortical tissue (RCMD binding assay), at 0.1 uM concentration

[2] = target: Muscarinic acetylcholine receptor; remark: listed apart in the source
Description: Compound was evaluated for its ability to displace muscarinic antagonist [3H]cis-methyldioxolane in rat cortical tissue (RQNB binding assay), at 1.0 uM concentration

[3] = target: T1, Muscarinic acetylcholine receptor (Rattus norvegicus) (UniProt P08482+P08483+P08485+P08911+P10980); conditions: 0.1 uM
[4] = target: T1, Muscarinic acetylcholine receptor (Rattus norvegicus); conditions: 1.0 uM
SK-N-SH [5] = system: SK-N-SH
[6] = target: T2, Muscarinic acetylcholine receptor M1 (Rattus norvegicus, UniProt P08482)
T2 sequence (P08482 whole entry): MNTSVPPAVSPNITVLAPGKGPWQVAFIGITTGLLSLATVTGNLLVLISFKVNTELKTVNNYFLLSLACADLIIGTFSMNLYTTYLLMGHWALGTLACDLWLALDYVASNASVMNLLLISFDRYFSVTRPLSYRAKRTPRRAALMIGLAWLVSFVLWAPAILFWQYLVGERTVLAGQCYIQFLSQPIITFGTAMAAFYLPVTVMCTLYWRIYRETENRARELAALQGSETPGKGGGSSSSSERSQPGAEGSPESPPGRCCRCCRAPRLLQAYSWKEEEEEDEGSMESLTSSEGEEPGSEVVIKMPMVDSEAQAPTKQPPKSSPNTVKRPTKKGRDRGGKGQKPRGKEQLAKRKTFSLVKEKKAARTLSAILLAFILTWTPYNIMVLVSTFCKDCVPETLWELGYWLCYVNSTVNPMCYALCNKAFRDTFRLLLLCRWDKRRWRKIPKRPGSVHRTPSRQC
Description: Compound was evaluated for the displacement of the muscarinic QNB in a genetically transformed rat cell line (m1c2) transfected with cloned m1 receptors (m1-QNBm1c2)

[7] = target: T3, Muscarinic acetylcholine receptor M2 (Rattus norvegicus, UniProt P10980); experiment: biochemical
T3 sequence (P10980 whole entry): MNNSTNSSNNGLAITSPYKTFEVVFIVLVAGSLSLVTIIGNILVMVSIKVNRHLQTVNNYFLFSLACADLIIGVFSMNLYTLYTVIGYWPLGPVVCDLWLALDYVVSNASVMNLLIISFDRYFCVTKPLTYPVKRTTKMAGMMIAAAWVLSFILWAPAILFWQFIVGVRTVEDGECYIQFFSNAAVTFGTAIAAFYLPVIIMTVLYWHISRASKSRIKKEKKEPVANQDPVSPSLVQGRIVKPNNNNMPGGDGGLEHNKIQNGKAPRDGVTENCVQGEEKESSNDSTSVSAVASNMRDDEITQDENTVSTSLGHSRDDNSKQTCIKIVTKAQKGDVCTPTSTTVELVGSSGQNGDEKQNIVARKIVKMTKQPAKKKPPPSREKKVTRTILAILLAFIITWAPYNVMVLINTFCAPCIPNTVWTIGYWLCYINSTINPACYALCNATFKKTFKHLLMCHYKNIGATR
Description: Compound was evaluated for the displacement of the muscarinic QNB in rat heart homogenate containing the pharmacologic M2 receptor (M2-QNB heart)

SK-N-SH [8] = experiment: Phosphoinositide (PI) turnover was assessed by the ability to stimulate [3H]- inositol phosphate accumulation in human SK-N-SH neuroblastoma cells relative to carbachol; assay type: functional

Row | SMILES | inhibition [3] [%] | inhibition [4] [%] | also measured
1 | CCCN1C(=O)OC[C@@H]1Cc1cncn1C |  |  | IC50 [1]: 73 µM; IC50 [2]: 3300 µM
2 | CCN1C(=O)OC[C@H]1Cc1cn(C)cn1 | 0 | 1 | 
3 | CN1C(=O)OC[C@@H]1Cc1cncn1C | 11 | 2 | 
4 | CCCN1C(=O)OC[C@@H]1Cc1c[nH]cn1 | 2 | 4 | 
5 | CCN1C(=O)OC[C@H]1Cc1c[nH]cn1 | 0 | 2 | 
6 | CCN1C(=O)OC[C@@H]1Cc1c[nH]cn1 | 4 | 4 | 
7 | C[N+](C)(C)CCOC(N)=O.[Cl-] [CARBACHOL] |  |  | PI turnover (SK-N-SH [5]): 100%
8 | CCCN1C(=O)OC[C@@H]1Cc1cn(C)cn1 | 2 | 10 | 
9 | CN1C(=O)OC[C@@H]1Cc1c[nH]cn1 | 0 | 0 | 
10 | CCN1C(=O)OC[C@@H]1Cc1cncn1C |  |  | IC50 [6]: 12.7 µM; IC50 [7]: 30.9 µM; IC50 [1]: 0.043 µM; PI turnover (SK-N-SH [8]): 16%; IC50 [2]: 8.9 µM
11 | CCN1C(=O)OC[C@H]1Cc1cncn1C | 6 | 0 | 
12 | O=C1CCCN1CC#CCN1CCCC1 [OXOTREMORINE] |  |  | IC50 [6]: 0.36 µM; IC50 [7]: 0.86 µM; PI turnover (SK-N-SH [5]): 33%
